Test results reported in US10792287B2, “Methods for treating mitochondrial diseases” (The Regents of the University of California, priority 2015, dated 2020).
Where a name gives a salt, the structure may show the parent alone. Read-outs that look alike come from different tables or passages of the source.

Experiments:
[1] = system: LHON cybrids (11778 G>A); assay: Complex I-driven ATP synthesis in rotenone-inhibited LHON mutant cybrids (luciferase-based, high-throughput screen and concentration-response); type: cell-based
[2] = system: control osteosarcoma cells and LHON mutant (11778 G>A) cells; assay: Validation of complex I-driven ATP synthesis assay with substrates and inhibitors of mitochondrial complexes; type: cell-based; conditions: for mitochondrial ATP synthesis: inhibitor at 1 μM, malate/pyruvate substrates, permeabilized cells
Text: The data is presented as ATP synthesis rate+standard deviation from one representative experiment.

[3] = system: Ndufs4 knockout mice; assay: Visual cliff test; type: in vivo, mouse; conditions: P21-P35 treatment; papaverine 20 mg/kg, zolpidem 20 mg/kg, rapamycin 8 mg/kg i.p.; idebenone 200 mg/kg oral
[4] = system: innate immune/inflammatory response in Ndufs4 KO retina; assay: Retinal gene expression of innate immune and inflammatory markers after drug treatment (Example 3); type: in vivo, mouse; conditions: Ndufs4 KO mice; doses as in drug formulation
Method: The graphs represent RNA expression of B2m (FIG. 21A), Tlr2 (FIG. 21B), Cxc110 (FIG. 21C), Cc15 (FIG. 21D), and Aif1 (FIG. 21E) in the wild type and Ndufs4 knockout retina. Bars represent mean delta Ct values normalized to housekeeping genes, Actb and Mapk1. Error bars represent standard error of the mean. Statistical significance was determined by two-tailed student's t test. * P<0.05, ** P<0.01, **** P<0.0001.
(§1) Wild type and Ndufs4 knockout mice were placed in one of five groups: vehicle, papaverine (20 mg/kg), zolpidem (20 mg/kg), rapamycin (8 mg/kg), or idebenone (200 mg/kg). For papaverine, zolpidem, and rapamycin, drug was dissolved in DMSO which was diluted in 5% PEG-400/5% Tween-20 in PBS. Vehicle contained all components except for the drug. The solution was then sterile filtered and intraperitoneal injections were performed using a 30 gauge needle. Idebenone was administered as a jelly and consumed orally.
We have previously shown that inflammatory gene expression of Aif1, Tlr2, B2m, Cc15, and Cxc110 are all elevated in the Ndufs4 KO mouse compared to wild type by more than 3-fold, indicating an inflammatory pathomechanism of mitochondrial blindness (Yu et al., Proc Natl Acad Sci USA, 2015, 112(42): E5689-98). […] Papaverine, zolpidem, rapamycin, and idebenone were administered to Ndufs4 KO mice to determine whether their protection of vision (FIG. 20) was through an anti-inflammatory mechanism of action. […] Thus, papaverine, zolpidem, and rapamycin appear to protect mitochondrial loss of vision through an antiinflammatory mechanism.

[5] = system: 11778(G>A) mutant cybrids; assay: Effect of rotenone on complex I-driven ATP synthesis in mutant vs control osteosarcoma cybrids; type: cell-based
Text: (§2) The data is presented as average+standard deviation from three independent experiments and single asterisk signifies the statistical significance (P<0.05) between the control and LHON mutant cells.
Among the various LHON-associated mutations, 11778(G>A) mutation encoding ND4 subunit of mitochondrial complex I is the most prevalent and the most severe (Oostra et al., J Med Genet, 1994, 31, 280-286). It has been previously hypothesized that some external stress factors are responsible for the precipitation of vision loss in LHON (Chalmers et al., Biochimica et Biophysica Acta, 1999, 1410, 147-158). To understand the 11778(G>A) mutant mitochondrial functionality under stress, we evaluated the effect of a complex I inhibitor on complex I-driven ATP synthesis using an osteosarcoma cybrid model (FIG. 11A).
Measurement of complex I-driven ATP synthesis: The cybrid cells were seeded at 50000 cells/well in 100 μL of medium, in a white, opaque-bottom, 96-well plate coated with poly-D-lysine (Corning) and was incubated at 37° C. overnight. […] After 2 hr incubation at 37° C., the medium from the plates were aspirated using an automatic plate washer (Biotek) and complex I-driven ATP synthesis was measured following the protocol of Yoshida and Fujikawa (Fujikawa et al., Biochemical and Biophysical Research Communications, 2010, 401, 538-543). […]

[6] = system: 11778 (G>A) mutant lymphoblasts; assay: Effect of rotenone on complex I-driven ATP synthesis in lymphoblasts; type: cell-based; conditions: gender-matched lymphoblasts
Method: as §2
For the lymphoblasts, drug-treated cells were centrifuged and resuspended at a concentration of 2×10^6 cells/mL, in the permeabilization buffer containing activated streptolysin O (Sigma). After 10 min incubation at 4° C., the cells were centrifuged and resuspended in transfer buffer at the same concentration. The cells were then incubated at 37° C. for 10 min followed by centrifugation and resuspension in buffer A containing malate (5 mM, Sigma), sodium pyruvate (5 mM, Sigma) and high purity ADP (200 μM, Apollo Scientific). Subsequently, 50 μL of buffer A containing 100,000 cells were plated in each wells of a 96-well plate. After 20 min of incubation at the room temperature the complex I-driven ATP synthesis was measured by using ATP Bioluminescence Assay Kit CLS II (Roche) following manufacturer's instruction.

[7] = system: inflammatory genes in retinas of Ndufs4 KO mice; assay: qRT-PCR of inflammatory genes in retinas after rapamycin treatment (Example 1); type: in vivo, mouse; conditions: rapamycin 8 mg/kg intraperitoneally for 9 days
Method: FIG. 6 depicts an experimental reversal of inflammatory gene induction by rapamycin. White bars, a mean increase in transcript level of 16/16 inflammatory markers was observed by qRT-PCR in retinas of Ndufs4 KO mice compared to wild type. […] Statistical significance determined by student's t test. * P<0.05, ** P<0.01.
Rapamycin was dissolved in DMSO to 100 mg/mL. This was diluted in 5% PEG-400/5% Tween-20 (vehicle) to a concentration of 0.6 mg/mL, sterile filtered, and stored at −80 for long-term storage. Rapamycin treated mice were injected with 132 microliters/10 g body weight for a final dose of 8.0 mg/kg (Johnson et al., Science, 2013, 342, 1524-1528). Vehicle mice were injected with equal volume of PBS and DMSO lacking rapamycin. […]
The change in PCR products as the reaction proceeded was monitored by SYBR green dye (Invitrogen, Grand Island, N.Y.). […] Quantification cycle (Cq) values obtained by the Lightcycler were analyzed by normalizing the values to the reference genes and delta Cq values were calculated to determine relative gene expression values compared to wild type. Delta delta Cq was also calculated to determine the fold change difference between Ndufs4 knockout and wild type. Significance, p<0.05 was determined using two sample independent student's t-test statistics with equal sample size and assuming equal variance.

[8] = system: control healthy cybrid; assay: Mitochondrial copy number (MT-TL1/B2M ratio), control cybrids; type: cell-based; conditions: control cells; 24 hrs exposure
Method: (§3) FIGS. 14A-14C illustrate the effect of drugs on the mitochondrial copy number. Difference of mitochondrial copy number between 11778 (G>A) mutant and control cybrids (FIG. 14A). Effect of zolpidem and papaverine on the control healthy cybrid mitochondrial copy number (FIG. 14B) and 11778 (G>A) mutant cybrid mitochondrial copy number (FIG. 14C). Cells were treated with either vehicle or one of the drugs at specified concentration for 24 h. The cells were harvested after 24 h and the ratio between MT-TL1 and B2M was determined. Data is presented as average relative fold change±std. deviation from three independent observations. Statistical significance (p<0.05) is denoted by ‘*’ and was determined by one way ANOVA and Dunett's post hoc test.

[9] = system: 11778 (G>A) mutant cybrid; assay: Mitochondrial copy number (MT-TL1/B2M ratio), mutant cybrids; type: cell-based; conditions: LHON mutant cells [11778(G>A)]; 24 hrs exposure
Method: as §3

[10] = system: Ndufs4 KO mice; assay: Starburst amacrine cell count (ChAT staining of whole retina); type: in vivo, mouse; conditions: two weeks (P21-P35) intraperitoneal injections
Method: 20× confocal images of whole retina stained with ChAT (marker of starburst amacrine cells) from wild type (FIG. 22A), Ndusf4 KO vehicle treated (FIG. 22B), Ndufs4 KO papaverine treated (FIG. 22C), Ndufs4 KO zolpidem treated (FIG. 22D), and Ndufs4 KO rapamycin treated (FIG. 22E) are shown.
as §1

[11] = system: Ndufs4 KO mice; assay: Microglia activation (Iba1 staining of whole mount retinas); type: in vivo, mouse; conditions: two weeks (P21-P35) intraperitoneal treatment
[12] = 20 h; read-out: Fold change of ATP synthesis rate greater than 2x Median Absolution Deviation

CN1CCc2cc3c(cc2[C@H]1[C@@H]1OC(=O)c2c1ccc1c2OCO1)OCO3 [bicuculine, bicuculline]
effect of GABAA antagonist on reversal of rotenone inhibition by zolpidem ([1]; zolpidem 30 μM and bicuculline 30 μM for 22 h, then rotenone 0.03 μM 2 h): no significant effect

O=C(O)CCC(=O)O [succinate]
reversal of inhibitor-induced inhibition of ATP synthesis ([2]; succinate 5 mM vs rotenone, ascorbate/TMPD vs antimycin): reversed

COC1=C(OC)C(=O)C(CCCCCCCCCCO)=C(C)C1=O [idebenone]
visual function (median # edge detections) [3]: not significant
innate immune/inflammatory gene expression (B2m, Tlr2, Cxcl10, Ccl5, Aif1) in retina [4]: significantly inhibited a portion of the innate immune/inflammatory response

O=S(=O)(NCCNC/C=C/c1ccc(Br)cc1)c1cccc2cnccc12 [H89]
effect of H89 on rotenone rescue effect of zolpidem ([1]; H89 3 μM with zolpidem 30 μM): reversed the rotenone rescue effect of zolpidem
effect of PKA inhibitor on papaverine's protection from rotenone ([1]; papaverine 30 μM and H89 3 μM for 22 h, then rotenone 0.03 μM 2 h): did not decrease papaverine's ability to protect from rotenone

CN(Cc1cnc2nc(N)nc(N)c2n1)c1ccc(C(=O)N[C@@H](CCC(=O)O)C(=O)O)cc1 [Methotrexate, methotrexate]
fold induction at 10 µM [1, 12]: 1.2

COc1ccc(OC)c(C(O)C(C)N)c1 (stereo not shown) [Methoxamine HCl, 2-amino-1-(2,5-dimethoxyphenyl)-1-propanol]
fold induction at 10 µM [1, 12]: 1.4

O=c1[nH]cc(F)c(=O)[nH]1 [Fluorouracil, 5-fluorouracil]
fold induction at 10 µM [1, 12]: 1.1

antimycin A
mitochondrial ATP synthesis [2]: inhibited the mitochondrial ATP synthesis

C=C(C)[C@H]1Cc2c(ccc3c2O[C@@H]2COc4cc(OC)c(OC)cc4[C@@H]2C3=O)O1 [rotenone]
mitochondrial ATP synthesis [2]: inhibited the mitochondrial ATP synthesis
rotenone-dependent ATP synthesis defect across 11778, 3460 and 14484 mutant cybrids ([5]; 3 most common LHON mutations in cybrids): directly in proportion to the severity of the disease in humans
sensitivity of complex I-driven ATP synthesis to rotenone ([5]; rotenone 0.001 μM-1 μM, 24 h, mutant clones HCT22, HFF3 vs control HGA2, H1959): highly sensitive to rotenone when compared to control
differential effect of rotenone on mutant vs control ATP synthesis [6]: clearly reproducible

CC[C@H]1/C=C/C=C/C[C@@H](C)[C@H](O)[C@@](C)(O)C(=O)[C@@H](C)[C@H](O)[C@@H](C)C(=O)[C@@H](C)[C@H](O)[C@@H](C)/C=C/C(=O)O[C@@H]2[C@H](C)[C@H](CC1)O[C@]1(CC[C@H](C)[C@H](C[C@@H](C)O)O1)[C@H]2C [oligomycin]
mitochondrial ATP synthesis [2]: inhibited the mitochondrial ATP synthesis

CO[C@H]1C[C@@H]2CC[C@@H](C)[C@@](O)(O2)C(=O)C(=O)N2CCCC[C@H]2C(=O)O[C@H]([C@H](C)C[C@@H]2CC[C@@H](O)[C@H](OC)C2)CC(=O)[C@H](C)/C=C(\C)[C@@H](O)[C@@H](OC)C(=O)[C@H](C)C[C@H](C)/C=C/C=C/C=C/1C [rapamycin]
transcripts with inhibition of mean amplitude of induction of inflammatory genes [7]: 16/16

Cc1ccc(-c2nc3ccc(C)cn3c2CC(=O)N(C)C)cc1 [zolpidem]
fold induction at 10 µM ([1]; 20 h, read-out: Fold change of ATP synthesis rate greater than 2x Median Absolution Deviation): 1.4
reversal of rotenone sensitivity of complex I-driven ATP synthesis ([1]; different concentrations of drug 22 h, then rotenone 0.03 μM 2 h): dose-dependently reversed the rotenone-sensitivity
ATP synthesis rate relative to vehicle-treated cells after rotenone ([1]; zolpidem 30 μM pre-treatment; rotenone 0.03 μM): 2 times
ATP synthesis rate compared to vehicle pre-treated cells ([1]; zolpidem 3, 10, and 30 μM pre-treatment; rotenone 0.03 μM): significantly higher ATP synthesis rate
ratio of mtDNA/nDNA [8]: did not significantly change the ratio of mtDNA/nDNA
ratio of mtDNA/nDNA [9]: did not significantly change the ratio of mtDNA/nDNA
visual function (median # edge detections) [3]: visual function was preserved
innate immune/inflammatory gene expression (B2m, Tlr2, Cxcl10, Ccl5, Aif1) in retina [4]: significantly inhibited a portion of the innate immune/inflammatory response
starburst amacrine cell loss [10]: significant protection of startburst amacrine cells from apoptosis
microglia activation [11]: decrease in microglia activation

Cn1cnc([N+](=O)[O-])c1Sc1ncnc2nc[nH]c12 [Azathioprine, azathioprine]
fold induction at 10 µM [1, 12]: 1.4

C1N2CN3CN1CN(C2)C3 [Methenamine, methenamine]
fold induction at 10 µM [1, 12]: 1.3
